The target of the assay is T1, human CB1 receptor (Homo sapiens, UniProt P21554).
T1 construct: expressed in transfected cells; membranes used
T1 sequence (P21554 whole entry): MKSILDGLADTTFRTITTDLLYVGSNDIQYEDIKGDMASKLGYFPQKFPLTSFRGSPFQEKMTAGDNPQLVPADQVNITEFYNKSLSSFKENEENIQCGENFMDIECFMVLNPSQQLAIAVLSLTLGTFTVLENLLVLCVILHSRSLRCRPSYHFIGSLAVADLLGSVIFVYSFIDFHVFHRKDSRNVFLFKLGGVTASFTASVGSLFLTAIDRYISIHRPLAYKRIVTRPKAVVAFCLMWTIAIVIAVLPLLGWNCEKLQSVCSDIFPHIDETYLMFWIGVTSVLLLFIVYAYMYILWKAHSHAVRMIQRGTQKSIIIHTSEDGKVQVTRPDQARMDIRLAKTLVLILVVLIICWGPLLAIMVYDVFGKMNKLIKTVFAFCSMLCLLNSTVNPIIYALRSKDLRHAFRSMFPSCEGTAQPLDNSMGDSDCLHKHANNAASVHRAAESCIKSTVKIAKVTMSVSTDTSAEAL
The assay is described as follows: Cannabinoid Receptor-1 functional assay: inhibition of CP55940-induced [35S]GTPγS binding to membranes of CHO-K1 cells expressing human CB1. The format is biochemical. As to conditions: 3 nM CP55940, [35S]GTPγS SPA, hCB1 membranes; read-out: IC50 value for antagonizing a CB1 receptor agonist. An excerpt: Transfection and Cell Culture—The cDNA encoding the human CB1 (Cannabinoid Receptor-1) receptor (GenBank accession number NM_016083) was cloned from a human adipose tissue cDNA library and cloned into the eukaryotic expression vector pcDNA3.1 (Invitrogen).
Chinese Hamster Ovary cells (CHO-K1) stably expressing recombinant human CB1 were generated by transfecting the plasmid containing the coding sequence of the human CB1 receptor in CHO-K1 cells, using lipofectamin, according to the manufacturer instructions. Resistant clones were selected in the presence of 600 μg/ml G418 (Life technology). Stably transfected CHO-K1 cells were maintained in Ham's F-12 culture medium (Invitrogen), supplemented with 10% fetal calf serum (Invitrogen), 100 U/ml penicillin, 100 μg/ml streptomycin (Life Technology), and 600 μg/ml G418.
Functional activities of the above examples of compounds of the invention were assessed in vitro by measuring their ability to inhibit CP55940-induced [^35S]GTPγS binding to membranes prepared from CHO-K1 cells expressing the human CB1 receptor (described in Transfection and Cell Culture). CP55940 is a well known non-selective CB1 and CB2 receptor agonist (e.g Felder et al., 1995, Molecular Pharmacology, (48) 443-50). Membranes were prepared by a standard procedure. Briefly, cells were harvested using 10 mM EDTA and collected by centrifugation. Pelleted cells were homogenized in ice-cold 20 mM Hepes (pH 7.4), 10 mM EDTA and protease inhibitors (Complete protease inhibitor cocktail tablet, Roche) using an Ultra Turrax Homogenizer. The homogenate was centrifuged at 14 000 rpm for 45 min. at 4° C. The resultant pellet was resuspended in the same buffer but with only 0.1 mM EDTA and was again centrifuged at 14 000 rpm for 45 min. at 4° C. The resulting pellet (membranes) was resuspended in 20 mM Hepes (pH 7.4), 0.1 mM EDTA, 2 mM MgCl2 and protease inhibitors and protein concentration was determined by Micro BCA Protein Assay Reagent Kit (Pierce Biotechnology) according to the manufacturer instructions. The [^35S]GTPγS SPA (Scintillation Proximity Assay) binding assay was performed by incubating 5 μg/well hCB1-membranes with 1 nM [^35S]GTPγS (Perkin Elmer—NEG 030H) in the presence of 3 nM of CP55940 and various concentrations of the test compounds at room temperature for 1 hr in 96-well microtiter plates. 0.4 mg/well SPA beads (PVT-WGA; RPNQ0001 Amersham Pharmacia Biotech) were then added and the incubation continued for further 30 min. on an orbital shaker. The assay buffer contained 50 mM HEPES (pH 7.5), 50 mM NaCl, 2.5 mM MgCl2, 0.1% BSA, 1 μM GDP and 100 μg/ml Saponin. Microtiter plates were centrifuged at 1500 rpm for 5 min. and radioactivity was read immediately using a Topcounter (PerkinElmer Life Sciences). Data were analyzed and IC50 values determined by non-linear regression using the Prism software (GraphPad Software, San Diego).
In general terms: GTPγS resists hydrolysis and so accumulates on activated G proteins.
As a reminder, the IC50 is the concentration needed to halve the response being measured. As for `Cc1ccc(C2(O)CCN(C(=O)c3nn(-c4ccccc4Cl)c(-c4ccc(Cl)cc4)c3CC(=O)O)CC2)nc1` [[1.22], [5-(4-Chloro-phenyl)-1-(2-chloro-phenyl)-3-(4′-hydroxy-5-methyl-3′,4′,5′,6′-tetrahydro-2′H-[2,4′]bipyridinyl-1′-carbonyl)-1H-pyrazol-4-yl]-acetic acid], the IC50 lay within 300 to 3000 nM. With `O=C(O)Cc1c(C(=O)N2CCC(c3cccs3)CC2)nn(-c2ccccc2Cl)c1-c1ccc(Cl)cc1` [[1.23], [5-(4-Chloro-phenyl)-1-(2-chloro-phenyl)-3-(4-thiophen-2-yl-piperidine-1-carbonyl)-1H-pyrazol-4-yl]-acetic acid], the concentration for half-maximal inhibition (IC50) was below 300 nM. Take `O=C(O)Cc1c(C(=O)N2CCC(O)(c3csc(Br)n3)CC2)nn(-c2ccccc2Cl)c1-c1ccc(Cl)cc1` [[1.24], [3-[4-(2-Bromo-thiazol-4-yl)-4-hydroxy-piperidine-1-carbonyl]-5-(4-chloro-phenyl)-1-(2-chloro-phenyl)-1H-pyrazol-4-yl]-acetic acid]: the IC50 is below 300 nM.

Consider `O=C(O)Cc1c(C(=O)N2CCC(O)(c3cccc(F)c3F)CC2)nn(-c2ccccc2Cl)c1-c1ccc(Cl)cc1` [[1.25], {5-(4-Chloro-phenyl)-1-(2-chloro-phenyl)-3-[4-(2,3-difluoro-phenyl)-4-hydroxy-piperidine-1-carbonyl]-1H-pyrazol-4yl}-acetic acid], for which the IC50 was below 300 nM.

On to `O=C(O)Cc1c(C(=O)N2CCC(c3ccc(F)cc3F)CC2)nn(-c2ccccc2Cl)c1-c1ccc(Cl)cc1` [[1.26], {1-(2-Chloro-phenyl)-5-(4-chloro-phenyl)-3-[4-(2,4-difluoro-phenyl)-piperidine-1-carbonyl]-1H-pyrazol-4-yl}-acetic acid], for which the IC50 is below 300 nM. Take `O=C(O)Cc1c(C(=O)N2CCC(c3ccccc3F)CC2)nn(-c2ccccc2Cl)c1-c1ccc(Cl)cc1` [[1.27], {1-(2-Chloro-phenyl)-5-(4-chloro-phenyl)-3-[4-(2-fluoro-phenyl)-piperidine-1-carbonyl]-1H-pyrazol-4-yl}-acetic acid]: the IC50 was below 300 nM. With `O=C(O)Cc1c(C(=O)N2CCC(c3ccc(C(F)(F)F)cc3)CC2)nn(-c2ccccc2Cl)c1-c1ccc(Cl)cc1` [[1.28], {1-(2-Chloro-phenyl)-5-(4-chloro-phenyl)-3-[4-(4-trifluoromethyl-phenyl)-piperidine-1-carbonyl]-1H-pyrazol-4-yl}-acetic acid], the IC50 was below 300 nM.

Turning to `O=C(O)Cc1c(C(=O)N2CCC(c3ccc(Cl)cc3)CC2)nn(-c2ccccc2Cl)c1-c1ccc(Cl)cc1` [[1.29], {1-(2-Chloro-phenyl)-5-(4-chloro-phenyl)-3-[4-(4-chloro-phenyl)-piperidine-1-carbonyl]-1H-pyrazol-4-yl}-acetic acid], the IC50 was below 300 nM.

For the compound `O=C(O)Cc1c(C(=O)N2CCC(c3cccc(C(=O)O)c3)CC2)nn(-c2ccccc2Cl)c1-c1ccc(Cl)cc1` [[1.30], 3-{1-[4-Carboxymethyl-1-(2-chloro-phenyl)-5-(4-chloro-phenyl)-1H-pyrazole-3-carbonyl]-piperidin-4-yl}-benzoic acid], the IC50 was in the range of 3000 to 10000 nM. `O=C(O)Cc1c(C(=O)N2CCC(c3cccc(Cl)c3)CC2)nn(-c2ccccc2Cl)c1-c1ccc(Cl)cc1` [[1.31], {1-(2-Chloro-phenyl)-5-(4-chloro-phenyl)-3-[4-(3-chloro-phenyl)-piperidine-1-carbonyl]-1H-pyrazol-4-yl}-acetic acid]: the IC50 was below 300 nM. Take `O=C(O)Cc1c(C(=O)N2CCC(c3ccncc3)CC2)nn(-c2ccccc2Cl)c1-c1ccc(Cl)cc1` [[1.32], [1-(2-Chloro-phenyl)-5-(4-chloro-phenyl)-3-(3,4,5,6-tetrahydro-2H-[4,4′]bipyridinyl-1-carbonyl)-1H-pyrazol-4-yl}-acetic acid]: the IC50 lay within 300 to 3000 nM. On to `O=C(O)Cc1c(C(=O)N2CCC(c3ccccc3)CC2)nn(-c2ccccc2Cl)c1-c1ccc(Cl)cc1` [[1.33], [1-(2-Chloro-phenyl)-5-(4-chloro-phenyl)-3-(4-phenyl-piperidine-1-carbonyl)-1H-pyrazol-4-yl]-acetic acid], for which the IC50 was below 300 nM. To `N#Cc1cccc(C2CCN(C(=O)c3nn(-c4ccccc4Cl)c(-c4ccc(Cl)cc4)c3CC(=O)O)CC2)c1` [[1.34], {1-(2-Chloro-phenyl)-5-(4-chloro-phenyl)-3-[4-(3-cyano-phenyl)-piperidine-1-carbonyl]-1H-pyrazol-4-yl}-acetic acid] belongs below 300 nM. With `O=C(O)Cc1c(C(=O)N2CCC(c3cc(Cl)cc(Cl)c3)CC2)nn(-c2ccccc2Cl)c1-c1ccc(Cl)cc1` [[1.35], {1-(2-Chloro-phenyl)-5-(4-chloro-phenyl)-3-[4-(3,5-dichloro-phenyl)-piperidine-1-carbonyl]-1H-pyrazol-4-yl}-acetic acid], the 50% inhibitory concentration (IC50) was below 300 nM. In the case of `O=C(O)Cc1c(C(=O)N2CCC(c3cc(F)cc(F)c3)CC2)nn(-c2ccccc2Cl)c1-c1ccc(Cl)cc1` [[1.36], {1-(2-Chloro-phenyl)-5-(4-chloro-phenyl)-3-[4-(3,5-difluoro-phenyl)-piperidine-1-carbonyl]-1H-pyrazol-4-yl}-acetic acid], the IC50 is below 300 nM.

In the case of `COc1cccc(C2CCN(C(=O)c3nn(-c4ccccc4Cl)c(-c4ccc(Cl)cc4)c3CC(=O)O)CC2)c1` [[1.37], {1-(2-Chloro-phenyl)-5-(4-chloro-phenyl)-3-[4-(3-methoxy-phenyl)-piperidine-1-carbonyl]-1H-pyrazol-4-yl}-acetic acid], the IC50 was below 300 nM. On to `O=C(O)Cc1c(C(=O)N2CCCC2c2ccc(C(F)(F)F)cc2)nn(-c2ccccc2Cl)c1-c1ccc(Cl)cc1` (centres unmarked) [[1.38], {1-(2-Chloro-phenyl)-5-(4-chloro-phenyl)-3-[2-(4-trifluoromethyl-phenyl)-pyrrolidine-1-carbonyl]-1H-pyrazol-4-yl}-acetic acid], for which the IC50 was below 300 nM. Turning to `O=C(O)Cc1c(C(=O)N2CCC(c3ccc(C(F)(F)F)cc3)C2)nn(-c2ccccc2Cl)c1-c1ccc(Cl)cc1` (centres unmarked) [[1.39], {1-(2-Chloro-phenyl)-5-(4-chloro-phenyl)-3-[3-(4-trifluoromethyl-phenyl)-pyrrolidine-1-carbonyl]-1H-pyrazol-4-yl}-acetic acid], the IC50 was below 300 nM.

On to `O=C(O)Cc1c(C(=O)N2CCC(c3cccc(C(F)(F)F)c3)CC2)nn(-c2ccccc2Cl)c1-c1ccc(Cl)cc1` [[1.40], {1-(2-Chloro-phenyl)-5-(4-chloro-phenyl)-3-[4-(3-trifluoromethyl-phenyl)-piperidine-1-carbonyl]-1H-pyrazol-4-yl}-acetic acid], for which the IC50 is below 300 nM.

Regarding `COC[C@@H]1CCCN1C(=O)c1nn(-c2ccccc2Cl)c(-c2ccc(Cl)cc2)c1CC(=O)O` [[1.41], [1-(2-Chloro-phenyl)-5-(4-chloro-phenyl)-3-((S)-2-methoxymethyl-pyrrolidine-1-carbonyl)-1H-pyrazol-4-yl]-acetic acid], the half-maximal inhibitory concentration (IC50) was in the range of 300 to 3000 nM. On to `O=C(O)Cc1c(C(=O)N2CCC(O)(c3ccc(F)c(C(F)(F)F)c3)CC2)nn(-c2ccccc2Cl)c1-c1ccc(Cl)cc1` [[1.42], {1-(2-Chloro-phenyl)-5-(4-chloro-phenyl)-3-[4-(4-fluoro-3-trifluoromethyl-phenyl)-4-hydroxy-piperidine-1-carbonyl]-1H-pyrazol-4-yl}-acetic acid], for which the IC50 is below 300 nM.

Consider `O=C(O)Cc1c(C(=O)N2CCC(O)(c3ccc(F)c(Cl)c3)CC2)nn(-c2ccccc2Cl)c1-c1ccc(Cl)cc1` [[1.43], [3-[4-(3-Chloro-4-fluoro-phenyl)-4-hydroxy-piperidine-1-carbonyl]-1-(2-chloro-phenyl)-5-(4-chloro-phenyl)-1H-pyrazol-4-yl]-acetic acid], for which the IC50 was below 300 nM. To `O=C(O)Cc1c(C(=O)N2CC[C@H](c3ccccc3)[C@@H](O)C2)nn(-c2ccccc2Cl)c1-c1ccc(Cl)cc1` [[1.44], [1-(2-Chloro-phenyl)-5-(4-chloro-phenyl)-3-((3R,4R)-3-hydroxy-4-phenyl-piperidine-1-carbonyl)-1H-pyrazol-4-yl]-acetic acid] belongs 300 to 3000 nM.
